Values of other authors as cited in patent publication US20130004575A1, “CONTROLLED RELEASE FORMULATIONS USING INTELLIGENT POLYMERS” (VALEANT INTERNATIONAL (BARBADOS) SRL, priority 1997, published 2013).

Details: room temperature

- solubility of topiramate in water: about 9.8 mg/mL
Compound: CC1(C)O[C@@H]2[C@@H](CO[C@@]3(COS(N)(=O)=O)OC(C)(C)O[C@@H]23)O1 [topiramate, 2,3:4,5-bis-O-(1-methylethylidene)-β-D-fructopyranose sulfamate]
